Experimental data published in ChEMBL document CHEMBL1201862, “PubChem BioAssay data set” (2004).
Active and inactive are the calls of the source.

Tests used:
BJ [1] = test: BJ-TERT fibroblast viability loss – cell-based, RAS-independent, luminescence, dose response (AID 1933); assay type: functional; conditions: Homo sapiens
BJ [2] = test: cells; assay type: functional, cell-based; conditions: Homo sapiens
BJ [3] = test: BJ-TERT-LT-ST fibroblast viability loss – cell-based, RAS-independent, luminescence, dose response (AID 1935); assay type: functional; conditions: Homo sapiens;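 note: BJ fibroblasts immortalized with TERT plus LT and ST oncogenes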
[4] = DRD fibroblast viability loss – cell-based, non-viral oncogenic, luminescence, dose response (AID 1934); assay type: functional; conditions: Homo sapiens
[5] = Trypanosoma cruzi growth suppression in host cells – NIH3T3 host cells, beta-gal luminescence, confirmation (AID 2044); assay type: functional, cell-based;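 note: intracellular parasites grown in NIH/3T3 mouse fibroblasts as host cells; luminescent beta-galactosidase reporter signal from transgenic T. cruzi replicating inside host cells; inhibitors lower the luminescence signal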
[6] = microbe, parasite or virus in culture; assay type: functional; conditions: Mycobacterium tuberculosis
[7] = NIH3T3 cell viability loss – ATP luminescence, mouse fibroblasts, counter-screen, dose response (AID 2010); assay type: functional, cell-based;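 note: cells exposed to compound for about 90 hours before reading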
[8] = viability of uninfected HEp-2 cells – cell-based, HTS, cytotoxicity control for RSV inhibitor project, dose response (AID 2410); assay type: functional; conditions: human respiratory syncytial virus
[9] = target: T1, Rac GTPase-activating protein 1 (Homo sapiens, UniProt Q9H0H5); test: blockers of MgcRacGAP-driven Rac1 GTP hydrolysis – biochemical, ADP Hunter fluorescence, primary and confirmatory, confirmation (AID 624330); assay type: functional
T1 sequence (Q9H0H5 whole entry): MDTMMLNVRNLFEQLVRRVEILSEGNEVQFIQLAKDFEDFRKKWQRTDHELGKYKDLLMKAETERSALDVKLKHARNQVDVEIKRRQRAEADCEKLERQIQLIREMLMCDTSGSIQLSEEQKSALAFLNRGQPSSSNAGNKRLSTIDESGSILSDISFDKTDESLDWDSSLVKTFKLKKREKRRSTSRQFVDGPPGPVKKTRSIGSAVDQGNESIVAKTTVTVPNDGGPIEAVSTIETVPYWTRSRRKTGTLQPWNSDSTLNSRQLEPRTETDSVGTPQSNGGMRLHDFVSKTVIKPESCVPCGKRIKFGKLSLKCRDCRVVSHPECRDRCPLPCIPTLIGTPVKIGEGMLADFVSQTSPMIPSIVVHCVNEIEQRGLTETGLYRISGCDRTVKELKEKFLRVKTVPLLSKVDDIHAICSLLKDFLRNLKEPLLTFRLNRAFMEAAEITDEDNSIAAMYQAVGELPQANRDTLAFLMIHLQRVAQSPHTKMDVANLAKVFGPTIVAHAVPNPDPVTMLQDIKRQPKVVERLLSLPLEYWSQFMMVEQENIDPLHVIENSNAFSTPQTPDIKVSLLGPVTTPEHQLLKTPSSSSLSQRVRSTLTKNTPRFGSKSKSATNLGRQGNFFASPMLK

[10] = target: T2, Heat shock factor protein 1 (Mus musculus, UniProt P38532); test: enhancement of HSF1-driven luciferase signal – cell-based, NIH3T3, luminescence, dose retest, confirmation (AID 435004); assay type: functional;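 note: stress induced by proteasome inhibitor MG132 added 30 min after compound; luciferase reporter driven by HSF1 response element in NIH3T3 cells; actives raise luminescence as potentiators of the MG132 stress response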
T2 sequence (P38532 whole entry): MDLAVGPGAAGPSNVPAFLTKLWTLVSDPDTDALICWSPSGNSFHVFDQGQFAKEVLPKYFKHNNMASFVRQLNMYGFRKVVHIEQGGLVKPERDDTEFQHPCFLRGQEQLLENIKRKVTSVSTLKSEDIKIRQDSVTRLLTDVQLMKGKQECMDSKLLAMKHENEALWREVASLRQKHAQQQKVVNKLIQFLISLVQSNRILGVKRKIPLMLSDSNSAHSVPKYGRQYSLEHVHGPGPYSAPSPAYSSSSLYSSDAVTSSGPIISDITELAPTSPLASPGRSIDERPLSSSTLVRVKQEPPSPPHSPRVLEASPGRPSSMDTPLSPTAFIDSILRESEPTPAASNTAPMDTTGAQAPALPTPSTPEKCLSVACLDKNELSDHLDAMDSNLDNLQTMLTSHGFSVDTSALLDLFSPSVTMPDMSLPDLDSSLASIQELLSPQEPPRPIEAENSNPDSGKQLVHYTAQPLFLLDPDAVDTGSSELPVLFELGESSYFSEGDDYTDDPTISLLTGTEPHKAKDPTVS

INS1 = test: INS-1E survival protection against cytokine death – cell-based, luminescence, retest, dose response (AID 449756); assay type: functional; conditions: Rattus norvegicus;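 note: cell death triggered by IL-1 beta plus TNF-alpha plus IFN-gamma mixture; protective hits raise ATP signal compared with cytokine alone wells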
cells = assay type: functional
[11] = test system: Streptococcus sp. 'group A'; test: Streptococcus pyogenes SK(-)GAS viability under kanamycin – luminescence, BacTiterGlo, confirmation, counter-screen for streptokinase expression inhibitor project, dose response (AID 1900); assay type: functional, organism-based
Streptokinase A = target: T3, Streptokinase A (Streptococcus pyogenes serotype M1, UniProt P10520); test: viability-normalized secreted streptokinase activity reduction – plasminogen activation absorbance, OD405, dose response (AID 1914); assay type: functional, Streptococcus pyogenes M1 GAS;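 note: secreted streptokinase activity via plasminogen activation per viability signal from cell pellet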
T3 sequence (P10520 whole entry): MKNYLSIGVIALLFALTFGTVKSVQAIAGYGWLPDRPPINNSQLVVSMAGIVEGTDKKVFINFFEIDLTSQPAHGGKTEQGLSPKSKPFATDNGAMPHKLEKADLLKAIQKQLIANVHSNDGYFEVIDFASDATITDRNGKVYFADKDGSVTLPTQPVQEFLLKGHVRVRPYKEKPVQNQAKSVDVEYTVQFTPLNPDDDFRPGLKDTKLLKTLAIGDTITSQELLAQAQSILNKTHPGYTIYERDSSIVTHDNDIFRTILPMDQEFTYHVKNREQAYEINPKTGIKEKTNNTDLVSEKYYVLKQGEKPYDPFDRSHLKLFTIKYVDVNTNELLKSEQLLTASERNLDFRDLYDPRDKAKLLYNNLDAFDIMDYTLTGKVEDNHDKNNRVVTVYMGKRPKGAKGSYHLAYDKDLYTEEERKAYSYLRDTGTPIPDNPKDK

Streptococcus = test: GAS UMAA2166 growth inhibition – luminescence, BacTiterGlo, counter-screen for streptokinase expression inhibitor project, dose response (AID 1915); assay type: functional, organism-based;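 note: potency for reduction of bacterial viability or growth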
[12] = target: T4, Corticotropin-releasing factor receptor 2/Corticotropin-releasing factor-binding protein (Homo sapiens, UniProt P24387+Q13324); test: activators of CRF receptor 2 with binding protein – uHTS hits, confirmation (AID 602473); assay type: functional; conditions: read-out: EC50_Mean
T4 sequence (Q13324 whole entry): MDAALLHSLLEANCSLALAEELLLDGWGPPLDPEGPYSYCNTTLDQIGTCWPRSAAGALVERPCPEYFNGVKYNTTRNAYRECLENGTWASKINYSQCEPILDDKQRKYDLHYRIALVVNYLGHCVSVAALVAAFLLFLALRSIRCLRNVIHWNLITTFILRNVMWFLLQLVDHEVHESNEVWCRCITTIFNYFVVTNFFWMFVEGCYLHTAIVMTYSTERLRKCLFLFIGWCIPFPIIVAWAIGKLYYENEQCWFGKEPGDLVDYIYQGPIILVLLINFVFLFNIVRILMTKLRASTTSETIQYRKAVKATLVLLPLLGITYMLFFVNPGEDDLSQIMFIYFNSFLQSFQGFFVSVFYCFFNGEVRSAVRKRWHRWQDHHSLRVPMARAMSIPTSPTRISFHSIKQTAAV
T4 sequence (P24387 whole entry): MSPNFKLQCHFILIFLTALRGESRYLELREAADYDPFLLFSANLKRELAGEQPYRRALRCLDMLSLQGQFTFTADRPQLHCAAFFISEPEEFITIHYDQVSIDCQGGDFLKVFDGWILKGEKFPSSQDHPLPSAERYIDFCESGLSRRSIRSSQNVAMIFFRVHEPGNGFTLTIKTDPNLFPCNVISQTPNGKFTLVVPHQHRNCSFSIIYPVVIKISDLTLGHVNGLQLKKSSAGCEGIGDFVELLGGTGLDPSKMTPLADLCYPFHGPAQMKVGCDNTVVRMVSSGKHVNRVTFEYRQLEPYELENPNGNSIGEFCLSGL

Cytochrome P450 3A4 = Cytochrome P450 3A4 (Homo sapiens, UniProt P08684);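 note: CYP3A4 tested as one member of a cytochrome P450 panel screen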
[13] = Luminescence Cell-Based Dose Retest to Confirm Inhibitors of Cancer Stem Cells. [Related pubchem assays (depositor defined):AID2717, AID2721]; assay type: functional; conditions: Homo sapiens
[14] = P. falciparum Dd2 growth inhibitors, dose response, SYBR Green, cherry-picked samples (AID 1159567); assay type: functional, cell-based

Cytochrome P450 3A4, sequence (P08684 whole entry): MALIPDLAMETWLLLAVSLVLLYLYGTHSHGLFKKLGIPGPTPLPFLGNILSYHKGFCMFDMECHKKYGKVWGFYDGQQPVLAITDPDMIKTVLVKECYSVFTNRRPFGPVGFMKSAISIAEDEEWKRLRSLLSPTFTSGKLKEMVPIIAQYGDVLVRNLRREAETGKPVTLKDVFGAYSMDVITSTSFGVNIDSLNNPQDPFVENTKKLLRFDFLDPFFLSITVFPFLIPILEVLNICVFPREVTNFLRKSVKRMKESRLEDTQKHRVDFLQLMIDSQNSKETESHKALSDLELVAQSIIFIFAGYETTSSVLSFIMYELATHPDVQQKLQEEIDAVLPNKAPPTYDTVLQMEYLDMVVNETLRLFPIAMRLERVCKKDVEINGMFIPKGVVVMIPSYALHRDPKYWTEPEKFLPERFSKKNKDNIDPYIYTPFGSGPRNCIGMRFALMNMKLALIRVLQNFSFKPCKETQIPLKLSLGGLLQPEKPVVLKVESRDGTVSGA

COc1ccc2nc(-c3cccc(F)c3)cc(O)c2c1
EC50 (BJ [1]): 1.24 µM (active)
EC50 (BJ [2]): 1.41 µM (inconclusive)
EC50 (BJ [3]): 0.885 µM (active)
EC50 [4]: 2.39 µM (inconclusive)

COc1cc(OC)cc(-c2cc3nc(C)c(CCC(=O)NC(C)CCc4ccco4)c(C)n3n2)c1 (stereo not given)
EC50 [5]: 0.45 µM (active)
CC50 [6]: 31.8 µM (active)
EC50 [7]: > 30 µM (not active)

CCCCCCC(=O)Nc1nc(C)c(-c2csc(Nc3ccccc3OC)n2)s1
CC50 [8]: 15 µM (active)

COc1cccc(C(=O)N2CCN(C3CCCCC3)CC2)c1
IC50 [9]: 142 µM (active)

Cc1ccc(NC(=O)CSc2nc3ccccc3c(=O)n2CCCN2CCCCC2)cc1Cl
EC50 [5]: 2.29 µM (active)
CC50 [6]: 14.4 µM (active)
EC50 [7]: > 60 µM (inconclusive)

COc1cc2nc(NC(=O)c3ccc(Cl)cc3)sc(=O)c2cc1OC
EC50 [10]: > 260 µM (inactive)

O=C(NCCN1CCN(c2cccc(Cl)c2)CC1)c1ccc(CSc2nc3cc[nH]cc-3n2)cc1
CC50 [6]: > 40 µM (active)

O=C(Nc1cccc(-c2nnc(-c3ccco3)o2)c1)C(c1ccccc1)c1ccccc1
CC50 [8]: 15.2 µM (active)

Cc1ccc2oc(C(Cl)(Cl)Cl)cc(=O)c2c1
EC50 [10]: 27.9 µM (active)

CC(=O)c1ccc(NC(S)=NC(C)c2ccc(Cl)cc2Cl)cc1 (stereo not given)
AC50 (INS1): 15.6 µM (active)

O=[N+]([O-])c1ncccc1Oc1nc(-c2cccnc2)nc2ccccc12
CC50 [6]: > 40 µM (active)
IC50 (cells): 1.15 µM (active)

CCOC(=O)c1nnc(-c2ccc(C)cc2)nc1Oc1ccccc1Cl
CC50 [8]: 21.3 µM (active)

Cc1nc(C)c(-c2csc(NCCc3ccccc3)n2)s1
AC50 (INS1): 18 µM (active)

Cc1ccc(/C=C/C(=O)c2ccc([N+](=O)[O-])o2)cc1
EC50 [11]: 4.07 µM (active)
EC50 (Streptokinase A): 8.82 µM (active)
EC50 (Streptococcus): 14.2 µM (active)
AC50 (INS1): 5.65 µM (active)

CC(=O)Nc1cccc(C(=O)/C=C/c2ccc(/C=C/C(=O)c3cccc(NC(C)=O)c3)cc2)c1
EC50 (BJ [1]): 5.89 µM (inconclusive)
EC50 (BJ [2]): > 150 µM (not active)
EC50 (BJ [3]): 3.93 µM (inconclusive)
EC50 [4]: 5.45 µM (inconclusive)

CCOC(=O)c1nnc2cc(-c3ccccc3)nn2c1C
CC50 [8]: > 50 µM (active)

Cc1nn(-c2ccccc2)c2c1C1(C(=O)Nc3ccccc31)N1C(=N2)Sc2ccccc21 (stereo not given)
CC50 [8]: 18.4 µM (active)

O=C(Nc1nnc(-c2ccccc2)o1)c1cc(Cl)sc1Cl
EC50 [12]: > 53 µM (inactive)

COc1cc(CNc2ccc(N3CCN(C(C)=O)CC3)cc2)ccc1OCc1ccccc1
IC50 [9]: 12.8 µM (active)

COc1ccc(-c2cc(C(F)(F)F)nc(SCc3cccc(C(=O)O)c3)n2)cc1
CC50 [8]: 22.2 µM (active)
AC50 (Cytochrome P450 3A4): 14.1 µM (inconclusive)

COc1ccc(-c2ccc3c(c2)S(=O)(=O)c2cccc(C(=O)NCCOc4ccccc4Cl)c2C3=O)cc1OC
AC50 (INS1): 3.41 µM (active)

O=C(c1cn(CC(=O)N2CCCCC2)c2ccccc12)C1CC1
EC50 [10]: > 260 µM (inactive)

Cc1ccc(C)c(S(=O)(=O)N2CCN(C(=O)c3ccccc3Cc3ccccc3)CC2)c1
CC50 [8]: 22.6 µM (active)

CN(C)/C=C1/C=C(c2ccccc2)OC1=O
IC50 [9]: 52.1 µM (active)

COc1ccc2c(c1)CCc1c(C(=O)N3CC4(C)CC3CC(C)(C)C4)noc1-2 (stereo not given)
AC50 [13]: < 0.16 µM (active)
EC50 [10]: > 260 µM (inactive)

Cc1ccc(C)c(OCC(O)CN2CCC(C)CC2)c1C (stereo not given)
IC50 [9]: 225 µM (active)

CCCCn1c(N)c(N(CC(C)C)C(=O)Cc2ccc(S(=O)(=O)N3CCOCC3)s2)c(=O)[nH]c1=O
EC50 [12]: 6.11 µM (active)

C[C@H]1CN([C@@H](C)CO)C(=O)CCCn2nncc2CO[C@@H]1CN(C)C(=O)Nc1ccc(N2CCCCC2)cc1
AC50 [14]: > 39 µM (inactive)

CCCNC(=O)c1cc2c(c(-c3cccc(-c4cc5ccccc5o4)c3)n1)[C@@H](CCO)N(C(=O)NC(C)C)C2
AC50 [14]: 4.15 µM (active)

COc1ccc(CNC(=O)c2cc3c(c(-c4cccc(-c5cccc(C#N)c5)c4)n2)[C@H](CCO)N([S@@+]([O-])C(C)(C)C)C3)cc1
AC50 [14]: 3.46 µM (active)

CCOc1cc(/C=N/NC(=O)CN2CCCCC2)ccc1O
IC50 [9]: 50.4 µM (active)

CC(=N)/C(C#N)=C(/O)CSc1nnc(-c2ccccc2Br)o1
EC50 [10]: > 260 µM (inactive)

Nc1ccc2nc(N)sc2c1
IC50 [9]: 9.57 µM (active)

COc1ccc(C#Cc2cccc(-c3nc(C(=O)N[C@@H]4CCN(Cc5ccccc5)C4)cc4c3[C@@H](CCO)N([S+]([O-])C(C)(C)C)C4)c2)cc1OC (stereo not given in full)
AC50 [14]: 3.58 µM (active)

COc1ccc2c3c(n(C)c2c1)[C@H](CO)N(C(=O)Nc1ccc(F)cc1)CC31CN(C(=O)NC2CCCC2)C1
AC50 [14]: 5.8 µM (active)

CCS(=O)(=O)N1CCCCN2[C@H](CO)[C@H](c3ccc(C#Cc4ccccc4OC)cc3)[C@@H]2C1
AC50 [14]: 8.09 µM (active)

COc1ccc(C#Cc2ccc3c(c2)[C@H]2[C@H](CCN2C(=O)C2CCC2)[C@@H](CO)N3)cc1
AC50 [14]: 3.22 µM (active)

CC(C)[C@H](CO)N(Cc1cccc(F)c1)c1nc(Nc2cccc(Cl)c2)c2ncn(C(C)C)c2n1
CC50 [6]: > 40 µM (active)

O=c1cc(-c2ccccc2)oc2ccccc12 [FLAVONE]
CC50 [8]: 34.2 µM (active)
